In PubChem BioAssay AID330 (DTP/NCI, 2004) one finds T/C data, which are given here for nine compounds.

Values joined by “and” are separate entries in the source; they are usually repeats but may differ in a detail not shown here. Identical values can stand only once. Toxic doses and inconclusive results are not listed.

The assay has as its system P388 leukemia ip, CD2F1 mice, survival T/C. As to the kind of experiment: NCI In Vivo Anticancer Drug Screen. Data for tumor model P388 Leukemia (intraperitoneal) in CD2F1 (CDF1) mice. The following applies: endpoint: median survival time, higher = longer survival. The method, boiled down: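 Mice carrying the transplanted tumor received test compound or vehicle. Survival was recorded in each group, and the value is the treated-group measurement divided by that of the vehicle-treated control group.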

On to `COc1ccc(CC2C(=O)NC(C)C(=O)N(C)C3C(=O)N(C)C(Cc4ccc(O)c(c4)Oc4ccc(cc4)C3O)C(=O)NC(C)C(=O)NC(C)C(=O)N2C)cc1` (stereo unspecified) (tested in a mixture with another compound), for which the T/C is, setting by setting: (dose: 1.0 mg/kg/injection, schedule: Q01DX009 (ip), vehicle: Klucel (hydroxypropylcellulose) (HPC)) 158 % of control; (dose: 2.0 mg/kg/injection, schedule: Q01DX009 (ip), vehicle: Klucel (hydroxypropylcellulose) (HPC)) 158 % of control; (dose: 4.0 mg/kg/injection, schedule: Q01DX009 (ip), vehicle: Klucel (hydroxypropylcellulose) (HPC)) 155 % of control; (dose: 250.0 micrograms/kg/injection, schedule: Q01DX009 (ip), vehicle: saline) 156 % of control; (dose: 500.0 micrograms/kg/injection, schedule: Q01DX009 (ip), vehicle: saline) 152 % of control; (dose: 1000.0 micrograms/kg/injection, schedule: Q01DX009 (ip), vehicle: saline) 158 % of control.
For the compound `COc1cc2c(c(OC)c1OC)-c1ccc(OC)c(=O)cc1[C@@H](NC=O)CC2`, under “dose: 0.25 mg/kg/injection, schedule: Q01DX009 (ip), vehicle: saline”, the T/C is 117 % of control.
As to `C[n+]1cccc(C(N)=O)c1`, the T/C was 102 % of control (dose: 25.0 mg/kg/injection, schedule: Q01DX009 (ip), vehicle: water); 112 % of control (dose: 50.0 mg/kg/injection, schedule: Q01DX009 (ip), vehicle: water); 112 % of control (dose: 100.0 mg/kg/injection, schedule: Q01DX009 (ip), vehicle: water); 110 % of control (dose: 200.0 mg/kg/injection, schedule: Q01DX009 (ip), vehicle: water); 100 % of control (dose: 400.0 mg/kg/injection, schedule: Q01DX009 (ip), vehicle: water).
In the case of `CN=NN/C1=C/CCCCCC1`, the T/C was 105 % of control (dose: 15.0 mg/kg/injection, schedule: Q01DX005 (ip), vehicle: Klucel + Tween-80); 113 % of control (dose: 30.0 mg/kg/injection, schedule: Q01DX005 (ip), vehicle: Klucel + Tween-80); 111 % of control and 117 % of control (dose: 60.0 mg/kg/injection, schedule: Q01DX005 (ip), vehicle: Klucel + Tween-80).
Take `O=C(O)c1cscn1.O=C(O)c1cscn1.O=C(O)c1cscn1.O=C(O)c1cscn1.[Cl][Rh][Cl]`: the T/C by setting is: (dose: 50.0 mg/kg/injection, schedule: Q01DX005 (ip), vehicle: saline + alcohol) 101 % of control; (dose: 100.0 mg/kg/injection, schedule: Q01DX005 (ip), vehicle: saline + alcohol) 107 % of control; (dose: 200.0 mg/kg/injection, schedule: Q01DX005 (ip), vehicle: saline + alcohol) 104 % of control.
`Oc1ccc2ccccc2c1C=NCCS`: the T/C runs as follows: (dose: 60.0 mg/kg/injection, schedule: Q01DX005 (ip), vehicle: saline with Tween-80) 87 % of control; (dose: 120.0 mg/kg/injection, schedule: Q01DX005 (ip), vehicle: saline with Tween-80) 87 % of control.
`CCCCNC(=O)OCc1c(COC(=O)NCCCC)c(-c2ccc(Cl)c(Cl)c2)n2c1CCC2`: the T/C (dose: 25.0 mg/kg/injection, schedule: Q01DX009 (ip), vehicle: saline with Tween-80) was 153 % of control and 159 % of control; the T/C (dose: 50.0 mg/kg/injection, schedule: Q01DX009 (ip), vehicle: saline with Tween-80) is 150 % of control and 171 % of control; the T/C (dose: 200.0 mg/kg/injection, schedule: Q01DX009 (ip), vehicle: saline with Tween-80) was 163 % of control.
As for `c1ccc2[nH]c(CN(CCN(Cc3nc4ccccc4[nH]3)Cc3nc4ccccc4[nH]3)Cc3nc4ccccc4[nH]3)nc2c1`, the T/C was 104 % of control (dose: 1.56 mg/kg/injection, schedule: Q01DX005 (ip), vehicle: DMSO); 106 % of control (dose: 3.12 mg/kg/injection, schedule: Q01DX005 (ip), vehicle: DMSO); 105 % of control (dose: 6.25 mg/kg/injection, schedule: Q01DX005 (ip), vehicle: DMSO); 107 % of control (dose: 12.5 mg/kg/injection, schedule: Q01DX005 (ip), vehicle: DMSO); 108 % of control (dose: 25.0 mg/kg/injection, schedule: Q01DX005 (ip), vehicle: DMSO).
As for `COc1cc2c(cc1OC)CC[N+](Cc1ccc([N+](=O)[O-])cc1)=C2`, the T/C by setting is: (dose: 12.5 mg/kg/injection, schedule: Q01DX001 (ip), vehicle: saline + alcohol) 98 % of control; (dose: 25.0 mg/kg/injection, schedule: Q01DX001 (ip), vehicle: saline + alcohol) 95 % of control; (dose: 50.0 mg/kg/injection, schedule: Q01DX001 (ip), vehicle: saline + alcohol) 95 % of control.
